Assay results reported in publication PMC6406907, “A H2AX–CARP-1 Interaction Regulates Apoptosis Signaling Following DNA Damage” (Cancers, 2019).
No end group written: not given here. HA = not defined here

Test system: γH2AX
Assay: Confocal immunofluorescence of γH2AX / peptide, MDA-MB-468
Format: cell-based, human
Protocol: Cells were plated onto chamber slides one day before treatment. Following treatment of cells with respective compounds, the adherent cells were fixed with 5% formaldehyde for 10 min and then washed with phosphate buffered saline (PBS). Samples were blocked (0.5% NP-40, 5% milk powder, 1% fetal bovine serum) for 30 min. After a single wash with PBS, cells were incubated with primary antibodies for 45 to 60 min. Coverslips were washed with PBS and then incubated with secondary antibodies for another 45 to 60 min. They were then washed with PBS and mounted with 0.1 μg/mL 4′,6′-diamidino-2-phenylindole (DAPI) containing mounting solution. For confocal imaging, cells were first fixed with PFA, then stained for CARP-1 by myc-tag antibodies (green), γH2AX antibodies (red), and DAPI (blue) for nuclear staining. Immunofluorescent or confocal images were taken using a Zeiss LSM 510 Meta NLO (63×).
Our next objective was to analyze the biological significance of the CARP-1–H2AX interaction in cells. […] Next, we measured activation of caspases as an apoptosis readout in cells expressing myc-His-tagged wild-type CARP-1 or CARP-1 (Δ600–650) proteins that were either untreated or treated with Adriamycin or CFM compounds as detailed in Section 2. We utilized a lower, 4–5 μM dose of Adriamycin or CFM compounds because a 10 μM Adriamycin dose caused interference in signal output/readout in this particular assay, likely due to background fluorescence that is emitted by higher dose of Adriamycin. Although Adriamycin has a maximum excitation and emission wavelength of 470 and 560 nm, respectively, we found significant fluorescence emission in cells treated with 10 μM Adriamycin at a 380-nm excitation wavelength. Moreover, since caspase activation precedes apoptotic cell death, we utilized a lower dose of Adriamycin to permit a robust measurement of optimal caspase activation in cells undergoing moderate apoptosis with lower/minimal interference by Adriamycin-induced fluorescence signals. […]

| Substance | nuclear presence of γH2AX (MDA-MB-468 expressing EGFP-H2AX (1–35) vs EGFP, Adriamycin-treated) | co-localization with γH2AX (6 μg/mL peptide, 72 h, confocal, insets top and middle rows of Figure 8C) | presence of γH2AX in Adriamycin-treated cells (MDA-MB-468 pre-incubated with 6 μg/mL peptide, 72 h, then Adriamycin, vs no peptide or scrambled peptide) |
| --- | --- | --- | --- |
| EGFP-H2AX (1–35): EGFP-tagged fusion protein stably expressed in MDA-MB-468 and HeLa sublines (MSGRGKTGGKARAKAKSRSSRAGLQFPVGRVHRLL; also: EGFP fusion, end not given here; UniProt P16104 1-35, looked up, fragment) | increased nuclear presence of γH2AX | – | – |
| His-TAT-HA-CARP-1 (636–650): His-TAT-HA-tagged CARP-1 (636–650) peptide, >95% purity, commercially synthesized ({His-TAT-HA}-PKTMKVNDLRKELES; reading uncertain; UniProt Q8IX12 636-650, looked up, fragment) | – | co-localization | increased presence of γH2AX |
